Patent US9913831B2, “Methods and compositions for treating nephrogenic diabetes insipidus” (UNIVERSITY OF UTAH RESEARCH FOUNDATION, priority 2011, dated 2018)

Experiments:
lithium-treated rats = assay: Effect of clopidogrel on lithium-induced alterations in rats (natriuresis, urinary nitrates/nitrites, hematocrit, body and kidney weight); settings: 2 weeks
Procedure: (§1) Animal experiments: Male Sprague-Dawley rats were purchased from Charles River (Wilmington, Mass., USA), and Brattleboro mutant rats that lack AVP (HsdBlu:BRAT-Avp^di) were obtained from the Rat Resource & Research Center (RRRC), University of Missouri, Columbia, Mo., USA. Mice (B6D2 genetic background) were bred in-house. […] Lithium-added chow (40 mmol Li/kg chow) was custom prepared (MP Biomedicals, Aurora, Ohio, USA). Clopidogrel bisulfate was administered orally by powdering and dissolving Plavix® tablets (Bristol-Myers Squibb, New York, N.Y., USA) in drinking water. The concentration of the drug in the drinking water was adjusted daily based on the water consumption of the animals the previous day. The clopidogrel dose used in Sprague-Dawley rats (20 mg/kg bw/day) was the same as used by other investigators (de La Crux et al, 2003; Graciano et al, 2008). In mice, clopidogrel was administered at a dose of 80 mg/kg bw/day. When compared with the human clinical dose of Plavix®, and adjusted to the Km factor (ratio of body surface area to body weight) of the species (man vs. rat or mouse) (Reagan-Shaw et al, 2007), the doses used in rats or mice were 2.5- and 5-fold higher, respectively. […] A higher dose of clopidogrel (40 mg/kg bw/day) was used in Brattleboro rats to ensure an unequivocal outcome whether positive or negative. Twenty-four hour urine samples were collected by placing the animals in the appropriate metabolic cages designed for rats and mice. Blood and kidney tissues were collected at necropsy. Cortical, outer and inner medullary regions of the kidneys were dissected out and processed for laboratory assays.
(§2) Blood, urine and tissue analysis: Osmolalities of clear urine samples were measured by vapor pressure method (Wescor, Logan, Utah, USA). Microhematocrit was determined by centrifuging free-flowing blood collected in heparinized capillary tubes in a microhematocrit centrifuge (Clay Adams, Parsippany, N.J., USA). Urinary excretion of AVP was quantified by a commercial ELISA kit (Enzo Life Sciences, Farmingdale, N.Y., USA). Total nitrate/nitrite contents of urine samples were determined by a commercial kit (Cayman Chemical, Ann Arbor, Mich.).Na, Li and K levels in serum and/or urine were determined on EasyElectrolyte® (Medica Corp., Bedford, Mass., USA). Based on serum and urine analysis, electrolyte-free clearance [CH20(e)] was computed using the formula CH20(e)=V((1−UNa+UK)/PNa), where V=urine volume, UNa and UK are urine Na and K, and PNa is plasma Na, respectively (Schrier 2006). Lithium levels in inner medullary tissue homogenates were assayed by Inductively Coupled Plasma-Mass Spectrometry (ICPMS) by Exova (Santa Fe Springs, Calif., USA), and were normalized to their respective protein contents.
Statistical Analysis: All quantitative data are expressed as mean±standard error (SE). Comparisons among the means of multiple groups were made by one-way analysis of variance (ANOVA), followed by the assessment of statistical significance by Tukey-Kramer Multiple Comparison Test or Student-Newman-Keuls Multiple Comparison Test. Differences between the means of two groups were determined by unpaired t test or where applicable, by Mann-Whitney nonparametric test. P values less than 0.05 were considered significant. GraphPad Instat® (GraphPad Software, Inc., La Jolla, Calif.) was used for statistical analysis.

AQP2 protein = settings: mice, lithium diet + clopidogrel 80 mg/kg bw/day 14 days
Procedure: The effect of administration of clopidogrel on lithium-induced polyuria was determined in mice (B6D2 genetic background). Groups of mice were administered either a lithium-containing diet (40 mmol/kg chow; custom prepared by MP Biomedicals, Aurora, Ohio) or lithium-containing diet plus clopidogrel (80 mg per kg body weight per day in drinking water) for 14 days. Twenty-four urine samples were collected prior to the start of the treatment (day 0), on days 8 and 9, and days 13 and 14. The data plotted in the graphs represent the mean of the values obtained on the two consecutive days. Results are mean±SE; n=5 for LI alone group and n=6 for LI+CLPD group; ANOVA followed by Tukey Kramer Multiple Comparison Test.

[1] = tested on: ADP-activated P2Y12 receptor
rats = settings: upto 4 weeks; cited from earlier work
[2] = tested on: lithium-induced polyuria in mice (B6D2 genetic background); settings: lithium diet + clopidogrel 80 mg/kg bw/day 14 days vs LI alone, P<0.05 or better
Procedure: (§3) Animal experiments: Male Sprague-Dawley rats were purchased from Charles River (Wilmington, Mass., USA), and Brattleboro mutant rats that lack AVP (HsdBlu:BRAT-Avpdi) were obtained from the Rat Resource & Research Center (RRRC), University of Missouri, Columbia, Mo., USA. Mice (B6D2 genetic background) were bred in-house. […] Lithium-added chow (40 mmol Li/kg chow) was custom prepared (MP Biomedicals, Aurora, Ohio, USA). Clopidogrel bisulfate was administered orally by powdering and dissolving Plavix® tablets (Bristol-Myers Squibb, New York, N.Y., USA) in drinking water. The concentration of the drug in the drinking water was adjusted daily based on the water consumption of the animals the previous day. The clopidogrel dose used in Sprague-Dawley rats (20 mg/kg bw/day) was the same as used by other investigators (de La Crux et al, 2003; Graciano et al, 2008). In mice, clopidogrel was administered at a dose of 80 mg/kg bw/day. When compared with the human clinical dose of Plavix®, and adjusted to the Km factor (ratio of body surface area to body weight) of the species (man vs. rat or mouse) (Reagan-Shaw et al, 2007), the doses used in rats or mice were 2.5- and 5-fold higher, respectively. […]
The effect of administration of clopidogrel on lithium-induced polyuria was determined in mice (B6D2 genetic background). […]

Brattleboro mutant rats = settings: Brattleboro rats lacking AVP, clopidogrel 40 mg/kg bw/day in drinking water 2 weeks
Procedure: Animal experiments: Male Sprague-Dawley rats were purchased from Charles River (Wilmington, Mass., USA), and Brattleboro mutant rats that lack AVP (HsdBlu:BRAT-Avp^di) were obtained from the Rat Resource & Research Center (RRRC), University of Missouri, Columbia, Mo., USA. Mice (B6D2 genetic background) were bred in-house. […] Lithium-added chow (40 mmol Li/kg chow) was custom prepared (MP Biomedicals, Aurora, Ohio, USA). Clopidogrel bisulfate was administered orally by powdering and dissolving Plavix® tablets (Bristol-Myers Squibb, New York, N.Y., USA) in drinking water. The concentration of the drug in the drinking water was adjusted daily based on the water consumption of the animals the previous day. […]
Blood, urine and tissue analysis: Osmolalities of clear urine samples were measured by vapor pressure method (Wescor, Logan, Utah, USA). Microhematocrit was determined by centrifuging free-flowing blood collected in heparinized capillary tubes in a microhematocrit centrifuge (Clay Adams, Parsippany, N.J., USA). Urinary excretion of AVP was quantified by a commercial ELISA kit (Enzo Life Sciences, Farmingdale, N.Y., USA). Total nitrate/nitrite contents of urine samples were determined by a commercial kit (Cayman Chemical, Ann Arbor, Mich.).Na, Li and K levels in serum and/or urine were determined on EasyElectrolyte® (Medica Corp., Bedford, Mass., USA). […]

Sprague-Dawley rats = tested on: Sprague-Dawley rats
Procedure: as §3, with “bw/day.” for “bw/day. When compared with the human clinical dose of Plavix®, and adjusted to the Km factor (ratio of body surface area to body weight) of the species (man vs. rat or mouse) (Reagan-Shaw et al, 2007), the doses used in rats or mice were 2.5- and 5-fold higher, respectively.”
Microhematocrit was determined by centrifuging free-flowing blood collected in heparinized capillary tubes in a microhematocrit centrifuge (Clay Adams, Parsippany, N.J., USA). Urinary excretion of AVP was quantified by a commercial ELISA kit (Enzo Life Sciences, Farmingdale, N.Y., USA). […]

[3] = tested on: lithium-induced polyuria in rats
Procedure: as §1, with “(HsdBlu:BRAT-Avpdi)” for “(HsdBlu:BRAT-Avp^di)”
as §2, with “Microhematocrit” for “Blood, urine and tissue analysis: Osmolalities of clear urine samples were measured by vapor pressure method (Wescor, Logan, Utah, USA). Microhematocrit”, “Total nitrate/nitrite contents of urine samples were determined by a commercial kit (Cayman Chemical, Ann Arbor, Mich.).Na, Li and K levels in serum and/or urine were determined on EasyElectrolyte® (Medica Corp., Bedford, Mass., USA).” left out

[4] = rats, lithium diet with clopidogrel vs lithium alone, ICPMS
Procedure: as §2, with “Microhematocrit” for “Blood, urine and tissue analysis: Osmolalities of clear urine samples were measured by vapor pressure method (Wescor, Logan, Utah, USA). Microhematocrit”, “Total nitrate/nitrite contents of urine samples were determined by a commercial kit (Cayman Chemical, Ann Arbor, Mich.).Na, Li and K levels in serum and/or urine were determined on EasyElectrolyte® (Medica Corp., Bedford, Mass., USA).” left out

P2Y12 receptor = settings: normal rats, clopidogrel 20 mg/kg bw/day 13 days
Procedure: (§4) Tissue samples were prepared and immnoblotted for semi-quantitative determination of protein abundances of P2Y12 receptor, and β-actin by the methods described previously (Zhang et al, ibid, 2008, 2009, 2010). Whole tissue homogenates were prepared in the presence of protease inhibitors, and the concentrations of proteins in the homogenates were determined, and solubilized in Laemmli buffer. Then the solubilized proteins were size fractionated on 12% SDS-polyacrylamide gels. Quality of tissue sample preparation and equality of protein loading were verified by staining parallel-run loading gels with Coomassie-blue (Gelcode Blue, Pierce Endogen, Rockford, Ill.). The size fractionated proteins were electrotransferred to nitrocellulose membranes, and blocked with buffer containing non-fat milk. Differences in protein loading were corrected by normalizing the band densities of the target proteins to that of β-actin (polyclonal antibody from Biolegend, San Diego, Calif., USA). After washing, the blocked membranes were incubated with rabbit polyclonal antibodies to either P2Y12 receptor (AnaSpec, Fremont, Calif.) or aquaporin-2 (AQP2; Zhang et al, ibid, 2008) or AQP1 (commercial source) or β-actin (Biolegend, San Diego, Calif.). Non-specific binding was prevented by incubation of the membranes with goat serum. Generation and characterization of AQP2 antibody (GN-762) was described previously (Kishore et al, 2000; Zhang et al, 2008). When peptide block was tested, prior to its use on the membranes the P2Y12 receptor antibody was pre-adsorbed by incubation with the blocking peptide as per the instructions of the supplier (AnaSpec, Fremont, Calif.). After washing off the primary antibodies, the nitrocellulose membranes were incubated with a peroxidase-conjugated secondary antibody to rabbit IgG (Dako North America, Carpinteria, Calif.). Chemiluminescence reaction was used to detect sites of antigen-antibody reactions (SuperSignal Substrate; Pierce Endogen, Rockford, Ill.), and captured on an X-ray film. Images were digitized and band densities were quantified by using Un-San-It software (Silk Scientific, Orem, Utah). The band densities of AQP2 were normalized by the band densities of β-actin. Mean values of relative band densities thus obtained for P2Y12 receptor were expressed as percent of the mean values obtained in the control group of animals.
(§5) Clopidogrel bisulfate was given orally to a group of Sprague-Dawley rats (n=4) for 13 days by dissolving powdered Plavix® tablets (75 mg base; Bristol-Myers Squibb/Sanofi, Bridgeport, N.J.) in drinking water, so that the rats consumed at least 20 mg of clopidogrel bisulfate base per kg body weight per day. The concentration of the drug in the drinking water was adjusted daily based on the water consumption of the rats the previous day. Another group of rats (n=4) was given plain water and this group served as controls.

AQP1 water channel = settings: normal rats, clopidogrel 20 mg/kg bw/day 13 days
Procedure: as §4, §5

[5] = tested on: AQP2 water channel protein; settings: normal rats, clopidogrel 20 mg/kg bw/day in drinking water 13 days, vs control
Procedure: as §4, §5

[6] = rats, lithium treatment alone (40 mmol Li/kg chow)
[7] = rats, lithium + clopidogrel (40 mg/kg bw/day per FIG. 11 legend)
[8] = rats, lithium + clopidogrel (40 mg/kg bw/day per FIG. 12 legend)

SMILES: [Li] [Lithium, lithium]
- kidney weight as a percent of body weight (lithium-treated rats; lithium-treated rats with or without added clopidogrel): did not change
- gain in body weight (lithium-treated rats; [6]): significantly low
- terminal hematocrit (lithium-treated rats; [6]): significant elevation

SMILES: COC(=O)[C@H](c1ccccc1Cl)N1CCc2sccc2C1 [clopidogrel]
- lithium-induced decrease in AQP2 protein abundance in the renal medulla (AQP2 protein): significantly prevented
- development of AVP-resistant polyuria ([1]; lithium-treated rodents): blocked the development
- AVP in the urine (surrogate for plasma AVP levels) ([1]; rodents): increased
- aquaporin-2 (AQP2) water channel protein in the kidney ([1]; rodents): increased
- urinary concentration ([1]; rodents): significantly increased
- doses free from toxicity (rats): ≤ 165 mg/kg bw/day
- water intake [2]: significant decrease
- urinary concentrating ability (Brattleboro mutant rats): did not increase
- lithium-induced increase in urinary NO3/NO2 (total nitrates/nitrites excretion) (lithium-treated rats; [7]): significantly ameliorated
- lithium-induced natriuresis (urinary sodium excretion) (lithium-treated rats; [7]): modest effect
- lithium-induced increase in terminal hematocrit (lithium-treated rats; [8]): reversed
- low gain in body weight due to lithium-treatment (lithium-treated rats; [8]): did not ameliorate
- urinary excretion of AVP (Sprague-Dawley rats; clopidogrel administration alone, rats): significantly increased
- urinary concentration (Sprague-Dawley rats; normal rats, clopidogrel 20 mg/kg bw/day in drinking water 13 days): Increased
- solute-free water absorption (negative value) ([3]; clopidogrel administered alone): modestly increased
- lithium-induced urinary AVP levels ([3]; co-administration of clopidogrel with lithium): augmented
- lithium-induced polyuria ([3]; lithium diet 40 mmol/kg chow + clopidogrel 20 mg/kg/day, 13 days): significantly ameliorated
- lithium-induced solute-free water excretion (electrolyte-free water clearance, positive value) ([3]; lithium diet + clopidogrel 20 mg/kg/day, 13 days): effectively reversed
- accumulation of lithium in the inner medulla [4]: no effect
- protein abundance of P2Y12 receptor in the kidney (P2Y12 receptor): did not appear to alter
- protein abundance of AQP1 water channel in the kidney (AQP1 water channel): did not appear to alter
- increase of AQP2 protein abundance in the inner medulla ([5]; P<0.002): 1.9 fold
- increase of AQP2 protein abundance in the cortex ([5]; P<0.02): 2.7 fold
- increase of AQP2 protein abundance in the outer medulla ([5]; P=0.24): not in the outer medulla
